The source of these data is patent publication US20100291622A1, “NOVEL COMPOUND, PROCESS FOR PRODUCTION THEREOF, AND USE THEREOF” (SCHOOL JURIDICAL PERSON KITASATO INSTITUTE, priority 2007, published 2010).

In brackets after ≈: the same amount, converted by molar mass. Like-named read-outs stand apart in the source and are kept apart here. A value given as a limit tells only on which side of the number the result lay.

What is called MIC is the smallest concentration in the dilution series that meets the test's criterion for growth inhibition.

Series [1] has as its target T1, undecaprenyl diphosphate synthase derived from Staphylococcus aureus (Staphylococcus aureus, UniProt P60477).
T1 construct: made in house; host or cells: E. coli BL21 (DE3), T7 promoter, IPTG induction; unpurified cell-free extract (100,000 x g supernatant)
Briefly: Inhibitory effect on undecaprenyl diphosphate synthase (phosphate release, Amplex Red fluorescence). The class given is biochemical. How it is done: (1) Inhibitory effect on the undecaprenyl diphosphate synthase derived from Staphylococcus aureus
The test on the activity of undecaprenyl diphosphate synthase was determined following a method of LI et al. (J. Biomol. Screen., vol. 8, pages 712-715, 2003) with partial changes. […]
The measurement of the activity of undecaprenyl diphosphate synthase was conducted as follows: the FKI-3368 substance was added to a buffer solution B (100 mM Tris-HCl buffer solution (pH 7.5), 50 mM potassium chloride, 0.5 mM magnesium chloride, 0.5 μM farnesyl diphosphate, 3.5 μM isopentenyl diphosphate, […] inorganic pyrophosphatase) so that 90 μL in total volume might be respectively put in each well of a 96-well microplate. […] In order to quantify the released phosphate, 100 μL of a solution C (0.5M Tris-HCl buffer solution (pH 8.8), 1.5 mM inosine, 50 μM Amplex™ Red, 0.02 U nucleoside phosphorylase, 1 U peroxidase, 0.4 U xanthine oxidase) was added to each well and after reaction was performed at room temperature for 40 minutes, fluorescence intensity was measured under the conditions of an excitation wavelength at 544 nm and a measurement wavelength at 590 nm.
The addition amount of […] and the intensity of fluorescence (F.I.) measured in a reaction liquid without the addition thereof were applied to the following expression and the inhibition % was calculated: […]

A short description of another series: Solubility in solvents. Type of series: physicochemical.
Series [2] has as its system Micrococcus luteus ATCC 9341. The experiment in a line: MIC by agar dilution. Type of series: cell-based. The note with it: ATCC9341; Micrococcus luteus ATCC 9341, 37° C. for 18 hours. How it is done: (§1) The measurement of the minimal inhibitory concentration (MIC) for various microbes of the FKI-3368-I substance of the present invention was performed by the following method. An ethanol solution of the FKI-3368-I substance was subjected to 2-fold dilution from the concentration of 1,000 μg/ml to prepare 14 stage diluted solutions (1,000 μg/ml, 500 μg/ml, 250 μg/ml, 125 μg/ml, 62.5 μg/ml, 31.3 μg/ml, 15.6 μg/ml, 7.8 μg/ml, 3.9 μg/ml, 2 μg/ml, 1 μg/ml, 0.5 μg/ml, 0.24 μg/ml and 0.12 μg/ml). After 1 ml each of the respective diluted solutions was placed on a round shape dish (90 mm (diameter)×20 mm, produced by IWAKI Co., Ltd.), 9 ml of a culture medium-N for sensitivity disc (for bacteria; produced by Nissui Pharmaceutical Co., Ltd.) or Sabouraud glucose agar (for yeast or mold; produced by Nihon Pharmaceutical Co., Ltd.) was added thereto to form plate media. The test microbes had been incubated in advance in Muller Hinton culture media (for bacteria; produced by Nissui Pharmaceutical Co., Ltd.) or potato dextrose agar media (for yeast or mold; produced by Nissui Pharmaceutical Co., Ltd.). On the very date when the test was performed, the resultant microbe suspensions were diluted with an Muller Hinton culture medium or a potato dextrose culture medium and a platinum loop thereof was streak-smeared on the plate media. These streak-smeared plate media was incubated at 37° C. for 18 hours (for bacteria) or at 27° C. for 40 hours (for yeast and mold) and MIC was determined.

The test system of series [3] is Mycobaderium smegmatis ATCC 607. Briefly: MIC by agar dilution. The class given is cell-based. Conditions: 18 h. As for the experimental part:
as §1

The subject of series [4] is Staphylococcus aureus ATCC 6538P. The experiment in a line: MIC by agar dilution. The note with it: ATCC6538P, 37° C. for 18 hours. Type of series: cell-based. As for the experimental part: as §1
(In general: In agar dilution, organisms are placed on agar that contains the substance at set levels.)

Series [5] deals with Saccharomyces cerevisiae ATCC 9763. Briefly: MIC by agar dilution. Type of series: cell-based. The note with it: ATCC9763; Saccharomyces cerevisiae ATCC 9763, 27° C. for 40 hours. How it is done: as §1
For series [6], the system named is Serratia marcescens IAM 1021. The experiment in a line: MIC by agar dilution. The class given is cell-based. Conditions: IAM1021; Serratia marcescens IAM 1021, 37° C. for 18 hours. How it is done: as §1
Series [7] concerns Pseudomonas aeruginosa IFO 3080. The experiment in a line: MIC by agar dilution. The note with it: IFO3080; Pseudomonas aeruginosa IFO 3080, 37° C. for 18 hours. The class given is cell-based. How it is done: as §1
Another series has as its system Escherichia coli NIHJ. The experiment in a line: MIC by agar dilution. The class given is cell-based. The note with it: 37° C. for 18 hours. How it is done: as §1
For series [8], the system named is Bacillus subtilis ATCC 6633. Briefly: MIC by agar dilution. The class given is cell-based. Conditions: ATCC6633; Bacillus subtilis ATCC 6633, 37° C. for 18 hours. As for the experimental part:
as §1

The test system of the next series is MRSA K24. Briefly: MIC by agar dilution. Type of series: cell-based. Conditions: Staphylococcus aureus, 18 h. How it is done: as §1
Series [9] concerns Candida albicans ATCC 64550. The experiment in a line: MIC by agar dilution. The class given is cell-based. Conditions: ATCC64550, 40 h. As for the experimental part: as §1
The test system of series [10] is Aspergillus niger ATCC 9642. The experiment in a line: MIC by agar dilution. Type of series: cell-based. The note with it: ATCC9642; Aspergillus niger ATCC 9642, 27° C. for 40 hours. As for the experimental part: as §1
For another series, the system named is Mucor racemosus IFO 4581. The experiment in a line: MIC by agar dilution. Conditions: IFO4581; Mucor racemosus IFO 4581, 27° C. for 40 hours. The class given is cell-based. As for the experimental part: as §1
The test system of series [11] is Penicillium chrysogenam IAM 12842. Briefly: MIC by agar dilution. The class given is cell-based. The note with it: IAM12842, 40 h. As for the experimental part:
as §1

Series [12] relates to Klebsiella pneumoniae ATCC 10031. Briefly: MIC by agar dilution. The class given is cell-based. Conditions: ATCC10031; Klebsiella pneumoniae ATCC 10031, 37° C. for 18 hours. As for the experimental part: as §1
Setting [13] is: methanol, ethanol, acetonitrile, ethyl acetate, chloroform and dimethylsulfoxide.

T1 sequence (P60477 whole entry): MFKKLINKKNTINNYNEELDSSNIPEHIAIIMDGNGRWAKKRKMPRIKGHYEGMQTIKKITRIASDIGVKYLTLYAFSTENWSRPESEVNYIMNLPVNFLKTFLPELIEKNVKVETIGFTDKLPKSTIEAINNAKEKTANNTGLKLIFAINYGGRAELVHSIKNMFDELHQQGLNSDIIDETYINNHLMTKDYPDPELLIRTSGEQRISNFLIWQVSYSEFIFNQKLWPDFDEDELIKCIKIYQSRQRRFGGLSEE

Compound `COc1cc(O)c2c(O)c3c(c4c2c1C1(C4)C(C)=CCCC1(C)C)C(O)C1(O)CC(O)=C(C(C)=O)C(=O)C1(O)C3=O` (centres unmarked) [FKI-3368-2] gave an IC50 in series [1] of 10 µM. The Solubility in solvents result in the series “Solubility in solvents” (setting [13]) is “Soluble”; in “Solubility in solvents” (water), “indissoluble”.
For `COc1cc(O)c2c(O)c3c(c4c2c1C1(C4)C(C)=CCCC1(C)C)C(O)C1(O)CC(O)=C(C(N)=O)C(=O)C1(O)C3=O` (centres unmarked) [FKI-3368-1], the MIC in series [2] was 1.56 µg/mL (≈ 2.76 µM); in [3], over 100 µg/mL; in [4], 0.78 µg/mL (≈ 1.38 µM); in [5], 12.5 µg/mL (≈ 22.1 µM); in series [6] it was over 100 µg/mL; in series [7], over 100 µg/mL. In addition, the MIC against Escherichia coli NIHJ is over 100 µg/mL; in [8] it was 0.4 µg/mL (≈ 0.707 µM); with MRSA K24, 0.78 µg/mL (≈ 1.38 µM); in [9], 6.25 µg/mL (≈ 11.1 µM); in [10], 12.5 µg/mL (≈ 22.1 µM); against Mucor racemosus IFO 4581, 25 µg/mL (≈ 44.2 µM). In addition, the MIC is 6.25 µg/mL (≈ 11.1 µM) in series [11] and over 100 µg/mL in series [12]. In [1] (cell-free extract of transformed E. Coli as enzyme source, 37° C., 20 minutes, read-out: concentration at which the undecaprenyl diphosphate synthase activity was inhibited to 50% (IC50)), the IC50 came to 4 µM. Moreover, the values for the Solubility in solvents entry in the series “Solubility in solvents” (setting [13]) and in “Solubility in solvents” (water) were “Soluble” and “indissoluble”, respectively.
